Read-outs that look alike come from different tables or passages of the source.
Legend:
Format in all cases: binding
[1] = molecular target: T1, HeLa cell extract proteins (Homo sapiens, UniProt O60762)
T1 construct: endogenous in cells; host or cells: HeLa cell extract

[2] = molecular target: T2, HeLa cell extract proteins (Homo sapiens, UniProt P05387)
T2 construct: endogenous in cells; host or cells: HeLa cell extract

[3] = molecular target: T3, HeLa cell extract proteins (Homo sapiens, UniProt P30740)
T3 construct: endogenous in cells; host or cells: HeLa cell extract
T3 sequence (P30740 1-379): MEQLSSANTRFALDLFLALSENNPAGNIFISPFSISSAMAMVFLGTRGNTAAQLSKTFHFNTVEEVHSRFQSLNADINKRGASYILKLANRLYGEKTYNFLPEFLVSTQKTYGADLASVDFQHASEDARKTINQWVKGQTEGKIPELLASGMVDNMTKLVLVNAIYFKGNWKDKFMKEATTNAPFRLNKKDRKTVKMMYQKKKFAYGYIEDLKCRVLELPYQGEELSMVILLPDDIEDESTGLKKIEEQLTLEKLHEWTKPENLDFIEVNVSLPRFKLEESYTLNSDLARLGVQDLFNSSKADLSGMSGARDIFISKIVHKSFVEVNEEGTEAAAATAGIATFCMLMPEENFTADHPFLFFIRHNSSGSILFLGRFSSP

[4] = molecular target: T4, HeLa cell extract proteins (Homo sapiens, UniProt P37837)
T4 construct: endogenous in cells; host or cells: HeLa cell extract
T4 sequence (P37837 1-337): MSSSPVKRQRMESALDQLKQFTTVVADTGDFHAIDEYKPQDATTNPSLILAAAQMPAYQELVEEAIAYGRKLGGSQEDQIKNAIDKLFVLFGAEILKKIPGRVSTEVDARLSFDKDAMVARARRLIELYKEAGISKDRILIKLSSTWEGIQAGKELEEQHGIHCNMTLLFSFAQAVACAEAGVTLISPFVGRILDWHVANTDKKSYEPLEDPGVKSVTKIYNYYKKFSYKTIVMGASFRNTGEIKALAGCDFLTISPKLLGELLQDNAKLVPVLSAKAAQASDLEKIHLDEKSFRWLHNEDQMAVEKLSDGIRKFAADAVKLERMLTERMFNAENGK

[5] = molecular target: T5, HeLa cell extract proteins (Homo sapiens, UniProt P40925)
T5 construct: endogenous in cells; host or cells: HeLa cell extract
T5 sequence (P40925 1-334): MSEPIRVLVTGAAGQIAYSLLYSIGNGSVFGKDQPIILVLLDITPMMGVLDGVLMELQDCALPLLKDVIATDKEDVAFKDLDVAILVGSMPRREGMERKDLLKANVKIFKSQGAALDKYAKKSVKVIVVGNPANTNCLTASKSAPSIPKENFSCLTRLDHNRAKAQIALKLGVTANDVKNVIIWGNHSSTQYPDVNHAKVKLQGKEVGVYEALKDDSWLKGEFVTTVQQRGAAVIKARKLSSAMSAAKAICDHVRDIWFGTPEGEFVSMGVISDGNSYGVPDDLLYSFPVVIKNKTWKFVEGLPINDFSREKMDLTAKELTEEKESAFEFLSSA

[6] = molecular target: T6, HeLa cell extract proteins (Homo sapiens, UniProt P55072)
T6 construct: endogenous in cells; host or cells: HeLa cell extract

[7] = molecular target: T7, HeLa cell extract proteins (Homo sapiens, UniProt Q15067)
T7 construct: endogenous in cells; host or cells: HeLa cell extract
T7 sequence (Q15067 1-660): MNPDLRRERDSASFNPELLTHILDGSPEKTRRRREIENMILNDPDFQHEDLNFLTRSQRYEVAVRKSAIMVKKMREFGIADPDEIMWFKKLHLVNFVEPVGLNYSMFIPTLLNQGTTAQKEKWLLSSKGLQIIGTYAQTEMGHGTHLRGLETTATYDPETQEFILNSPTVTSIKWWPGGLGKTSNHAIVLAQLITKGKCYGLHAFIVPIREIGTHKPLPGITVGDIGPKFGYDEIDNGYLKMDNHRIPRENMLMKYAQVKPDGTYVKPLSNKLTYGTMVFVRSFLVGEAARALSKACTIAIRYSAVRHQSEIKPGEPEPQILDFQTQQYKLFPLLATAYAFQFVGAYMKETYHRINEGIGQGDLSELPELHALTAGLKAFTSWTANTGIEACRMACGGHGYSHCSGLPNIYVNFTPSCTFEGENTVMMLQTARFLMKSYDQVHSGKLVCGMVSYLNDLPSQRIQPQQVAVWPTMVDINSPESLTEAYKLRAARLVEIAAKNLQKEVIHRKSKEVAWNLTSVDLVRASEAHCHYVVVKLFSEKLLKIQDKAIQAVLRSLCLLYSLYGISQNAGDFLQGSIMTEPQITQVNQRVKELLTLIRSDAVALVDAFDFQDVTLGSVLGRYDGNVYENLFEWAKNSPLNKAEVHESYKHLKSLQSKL

[8] = molecular target: T8, HeLa cell extract proteins (Homo sapiens, UniProt Q5T4S7)
T8 construct: endogenous in cells; host or cells: HeLa cell extract
T8 sequence (Q5T4S7 whole entry): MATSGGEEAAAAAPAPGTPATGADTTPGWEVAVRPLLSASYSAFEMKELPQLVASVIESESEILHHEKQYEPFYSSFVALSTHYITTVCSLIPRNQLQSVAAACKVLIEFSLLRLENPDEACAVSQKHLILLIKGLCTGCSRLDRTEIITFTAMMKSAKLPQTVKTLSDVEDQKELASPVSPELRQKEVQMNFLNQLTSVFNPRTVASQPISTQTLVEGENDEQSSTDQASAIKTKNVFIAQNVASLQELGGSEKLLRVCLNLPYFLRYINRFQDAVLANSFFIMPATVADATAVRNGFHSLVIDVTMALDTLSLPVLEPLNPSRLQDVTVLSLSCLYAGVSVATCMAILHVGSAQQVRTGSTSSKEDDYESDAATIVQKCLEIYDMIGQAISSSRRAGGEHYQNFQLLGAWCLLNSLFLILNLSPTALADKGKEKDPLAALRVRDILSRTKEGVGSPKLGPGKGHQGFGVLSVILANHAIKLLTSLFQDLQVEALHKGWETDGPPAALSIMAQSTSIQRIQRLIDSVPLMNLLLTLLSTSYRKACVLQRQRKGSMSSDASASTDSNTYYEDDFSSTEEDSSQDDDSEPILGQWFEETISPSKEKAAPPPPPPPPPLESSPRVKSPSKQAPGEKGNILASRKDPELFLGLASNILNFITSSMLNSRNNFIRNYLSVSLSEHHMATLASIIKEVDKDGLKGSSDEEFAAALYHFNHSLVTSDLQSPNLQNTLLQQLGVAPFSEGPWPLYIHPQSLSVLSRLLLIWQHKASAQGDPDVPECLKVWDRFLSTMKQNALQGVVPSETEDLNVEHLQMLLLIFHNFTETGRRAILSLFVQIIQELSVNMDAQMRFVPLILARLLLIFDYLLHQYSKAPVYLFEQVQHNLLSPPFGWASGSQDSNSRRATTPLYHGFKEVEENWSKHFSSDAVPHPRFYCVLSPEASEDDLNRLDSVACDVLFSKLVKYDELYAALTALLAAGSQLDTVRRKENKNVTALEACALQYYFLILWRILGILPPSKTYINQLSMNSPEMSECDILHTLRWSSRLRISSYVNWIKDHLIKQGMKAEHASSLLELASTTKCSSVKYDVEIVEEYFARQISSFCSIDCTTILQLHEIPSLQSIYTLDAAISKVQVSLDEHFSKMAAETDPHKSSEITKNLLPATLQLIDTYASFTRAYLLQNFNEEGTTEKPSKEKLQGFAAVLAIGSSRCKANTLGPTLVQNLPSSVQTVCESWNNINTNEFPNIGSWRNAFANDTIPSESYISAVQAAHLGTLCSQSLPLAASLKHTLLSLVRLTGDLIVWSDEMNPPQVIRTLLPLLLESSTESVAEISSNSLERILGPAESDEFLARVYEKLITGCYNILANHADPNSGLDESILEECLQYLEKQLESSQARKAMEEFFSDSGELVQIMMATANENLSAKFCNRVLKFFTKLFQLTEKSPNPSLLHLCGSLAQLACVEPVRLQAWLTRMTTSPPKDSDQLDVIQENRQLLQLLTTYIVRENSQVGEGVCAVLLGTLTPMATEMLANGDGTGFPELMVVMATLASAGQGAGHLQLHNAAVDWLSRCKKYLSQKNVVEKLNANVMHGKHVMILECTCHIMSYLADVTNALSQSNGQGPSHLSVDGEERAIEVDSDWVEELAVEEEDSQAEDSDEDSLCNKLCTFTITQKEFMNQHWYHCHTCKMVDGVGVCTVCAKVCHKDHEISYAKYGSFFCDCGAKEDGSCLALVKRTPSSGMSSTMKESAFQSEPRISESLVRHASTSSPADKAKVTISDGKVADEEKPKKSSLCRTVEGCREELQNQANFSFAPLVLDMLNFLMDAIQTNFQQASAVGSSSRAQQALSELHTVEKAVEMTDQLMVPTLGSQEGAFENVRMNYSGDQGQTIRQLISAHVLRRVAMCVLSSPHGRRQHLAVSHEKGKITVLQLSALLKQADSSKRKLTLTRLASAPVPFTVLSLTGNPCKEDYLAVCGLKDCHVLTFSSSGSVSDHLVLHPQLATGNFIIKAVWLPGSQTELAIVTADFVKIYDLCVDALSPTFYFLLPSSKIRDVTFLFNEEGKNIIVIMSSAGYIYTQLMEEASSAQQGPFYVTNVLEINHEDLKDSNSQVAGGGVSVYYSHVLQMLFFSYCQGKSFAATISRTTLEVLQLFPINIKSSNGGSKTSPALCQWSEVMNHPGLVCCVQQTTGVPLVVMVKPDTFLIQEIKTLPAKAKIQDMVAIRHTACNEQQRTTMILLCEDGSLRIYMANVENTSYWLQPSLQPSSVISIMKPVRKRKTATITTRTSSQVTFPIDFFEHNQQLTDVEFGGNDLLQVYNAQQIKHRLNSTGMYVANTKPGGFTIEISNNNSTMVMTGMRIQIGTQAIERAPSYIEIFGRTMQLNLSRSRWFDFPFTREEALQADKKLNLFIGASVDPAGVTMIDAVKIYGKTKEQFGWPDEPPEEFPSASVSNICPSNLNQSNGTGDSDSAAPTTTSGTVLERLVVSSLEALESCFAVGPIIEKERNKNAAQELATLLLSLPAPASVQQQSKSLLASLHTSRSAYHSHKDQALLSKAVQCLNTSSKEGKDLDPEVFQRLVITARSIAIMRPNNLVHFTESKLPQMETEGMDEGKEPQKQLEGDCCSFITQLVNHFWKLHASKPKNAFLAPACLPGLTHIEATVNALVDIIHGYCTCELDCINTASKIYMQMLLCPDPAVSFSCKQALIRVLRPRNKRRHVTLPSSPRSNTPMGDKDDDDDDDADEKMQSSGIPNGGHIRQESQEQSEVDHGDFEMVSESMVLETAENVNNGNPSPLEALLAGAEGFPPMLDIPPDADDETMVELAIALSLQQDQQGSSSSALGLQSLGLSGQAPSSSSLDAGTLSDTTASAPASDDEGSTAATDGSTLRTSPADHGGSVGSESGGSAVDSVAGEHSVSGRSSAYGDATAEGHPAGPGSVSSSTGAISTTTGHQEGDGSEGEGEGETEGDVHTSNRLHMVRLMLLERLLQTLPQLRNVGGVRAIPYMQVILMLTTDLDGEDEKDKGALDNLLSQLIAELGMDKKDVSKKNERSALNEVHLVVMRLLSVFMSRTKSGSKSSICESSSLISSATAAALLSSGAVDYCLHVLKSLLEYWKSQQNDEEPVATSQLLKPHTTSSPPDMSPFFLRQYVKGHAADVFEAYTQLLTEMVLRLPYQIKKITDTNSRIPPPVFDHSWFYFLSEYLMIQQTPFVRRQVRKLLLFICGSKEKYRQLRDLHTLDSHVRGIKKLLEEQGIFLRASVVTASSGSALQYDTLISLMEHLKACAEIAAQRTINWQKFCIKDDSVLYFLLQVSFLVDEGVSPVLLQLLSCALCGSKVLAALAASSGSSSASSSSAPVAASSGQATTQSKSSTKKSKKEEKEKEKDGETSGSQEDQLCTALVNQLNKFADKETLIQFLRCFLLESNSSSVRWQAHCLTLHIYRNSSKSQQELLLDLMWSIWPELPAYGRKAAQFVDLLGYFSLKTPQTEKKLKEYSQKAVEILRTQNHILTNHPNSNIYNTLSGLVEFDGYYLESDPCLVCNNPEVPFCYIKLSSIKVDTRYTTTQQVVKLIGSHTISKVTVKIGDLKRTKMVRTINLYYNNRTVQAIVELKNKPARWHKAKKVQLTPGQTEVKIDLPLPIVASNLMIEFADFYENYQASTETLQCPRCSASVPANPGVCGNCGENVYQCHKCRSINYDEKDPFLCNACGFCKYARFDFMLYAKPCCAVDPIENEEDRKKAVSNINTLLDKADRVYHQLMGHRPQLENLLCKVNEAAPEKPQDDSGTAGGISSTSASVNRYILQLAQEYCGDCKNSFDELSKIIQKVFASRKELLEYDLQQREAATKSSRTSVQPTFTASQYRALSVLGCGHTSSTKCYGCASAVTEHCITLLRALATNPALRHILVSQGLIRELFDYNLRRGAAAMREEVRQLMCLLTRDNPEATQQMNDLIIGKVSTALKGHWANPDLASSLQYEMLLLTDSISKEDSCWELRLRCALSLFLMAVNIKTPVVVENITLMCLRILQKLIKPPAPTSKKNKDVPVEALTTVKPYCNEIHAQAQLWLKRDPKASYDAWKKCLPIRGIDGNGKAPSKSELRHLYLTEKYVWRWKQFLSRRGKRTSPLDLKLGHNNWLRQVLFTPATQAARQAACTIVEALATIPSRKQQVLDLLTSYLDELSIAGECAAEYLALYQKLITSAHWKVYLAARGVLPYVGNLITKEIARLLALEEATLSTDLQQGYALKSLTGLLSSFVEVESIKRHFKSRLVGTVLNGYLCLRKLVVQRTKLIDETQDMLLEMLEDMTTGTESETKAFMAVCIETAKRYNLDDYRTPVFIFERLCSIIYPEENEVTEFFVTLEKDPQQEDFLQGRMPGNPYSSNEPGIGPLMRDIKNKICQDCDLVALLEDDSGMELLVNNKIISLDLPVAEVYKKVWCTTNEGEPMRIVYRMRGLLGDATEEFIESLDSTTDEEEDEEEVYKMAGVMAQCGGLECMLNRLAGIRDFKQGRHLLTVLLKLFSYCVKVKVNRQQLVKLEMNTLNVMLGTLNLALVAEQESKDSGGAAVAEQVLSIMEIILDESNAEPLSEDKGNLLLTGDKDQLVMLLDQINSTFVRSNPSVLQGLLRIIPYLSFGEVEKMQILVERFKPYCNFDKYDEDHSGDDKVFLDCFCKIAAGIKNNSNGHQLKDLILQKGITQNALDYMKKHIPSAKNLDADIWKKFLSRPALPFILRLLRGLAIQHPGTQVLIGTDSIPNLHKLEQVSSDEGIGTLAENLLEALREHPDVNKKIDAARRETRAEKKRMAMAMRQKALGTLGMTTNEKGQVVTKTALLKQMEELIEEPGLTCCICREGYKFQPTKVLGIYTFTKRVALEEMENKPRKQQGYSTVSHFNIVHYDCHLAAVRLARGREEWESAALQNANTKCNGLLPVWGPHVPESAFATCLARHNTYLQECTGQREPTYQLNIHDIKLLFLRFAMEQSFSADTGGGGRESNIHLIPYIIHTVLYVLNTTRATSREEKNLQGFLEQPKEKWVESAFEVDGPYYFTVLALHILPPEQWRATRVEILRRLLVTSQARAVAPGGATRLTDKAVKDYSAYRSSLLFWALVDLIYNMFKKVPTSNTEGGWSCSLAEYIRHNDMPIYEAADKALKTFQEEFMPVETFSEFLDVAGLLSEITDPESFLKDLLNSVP

[9] = molecular target: T9, HeLa cell extract proteins (Homo sapiens, UniProt Q8NBE8)
T9 construct: endogenous in cells; host or cells: HeLa cell extract
T9 sequence (Q8NBE8 1-558): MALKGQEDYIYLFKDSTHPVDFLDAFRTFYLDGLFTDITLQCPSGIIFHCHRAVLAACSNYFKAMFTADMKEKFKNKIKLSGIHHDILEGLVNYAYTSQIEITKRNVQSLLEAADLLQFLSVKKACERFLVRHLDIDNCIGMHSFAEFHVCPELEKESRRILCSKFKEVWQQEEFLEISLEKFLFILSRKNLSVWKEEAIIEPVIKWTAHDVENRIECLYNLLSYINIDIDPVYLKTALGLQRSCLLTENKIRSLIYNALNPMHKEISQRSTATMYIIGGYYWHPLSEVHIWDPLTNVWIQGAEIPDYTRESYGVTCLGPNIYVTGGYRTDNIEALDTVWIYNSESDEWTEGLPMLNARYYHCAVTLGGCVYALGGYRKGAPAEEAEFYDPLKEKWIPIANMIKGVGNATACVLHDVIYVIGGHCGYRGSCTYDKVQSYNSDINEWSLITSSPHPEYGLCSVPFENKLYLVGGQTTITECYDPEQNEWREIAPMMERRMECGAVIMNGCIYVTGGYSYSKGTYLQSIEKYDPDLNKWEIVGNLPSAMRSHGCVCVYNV

[10] = HeLa, protein TALDO1 (TRANSALDOLASE.)
[11] = HeLa, protein MDH1 (MALATE DEHYDROGENASE, CYTOPLASMIC.)

Structure (SMILES)	fold changes relative to vehicle control ([1]; protein DPM1, HeLa)	fold changes relative to vehicle control ([2]; protein RPLP2, HeLa)	fold changes relative to vehicle control ([3]; HeLa, protein SERPINB1)	fold changes relative to vehicle control ([4]; protein TALDO1, HeLa)	fold changes relative to vehicle control ([5]; HeLa, protein MDH1)	fold changes relative to vehicle control ([6]; HeLa, protein VCP)	fold changes relative to vehicle control ([7]; HeLa, protein ACOX1)	fold changes relative to vehicle control ([8]; protein UBR4, HeLa)	fold changes relative to vehicle control ([9]; HeLa, protein KLHL23)	fold changes relative to vehicle control ([1]; captured protein DPM1, HeLa)	fold changes relative to vehicle control ([3]; protein SERPINB1, HeLa)	fold changes relative to vehicle control [4, 10] [fold]	fold changes relative to vehicle control [5, 11] [fold]	fold changes relative to vehicle control ([6]; protein VCP, HeLa)	fold changes relative to vehicle control ([9]; protein KLHL23, HeLa)	other results
Nc1nc2c(c(=O)[nH]1)N(C=O)C(CNc1ccc(C(=O)N[C@@H](CCC(=O)O)C(=O)O)cc1)CN2 (stereo partly drawn) [LEU, leucovorin]	0.94	0.82	0.98	0.88	1.01	0.98	1	1.02	0.91							
Nc1nc2[nH]cc(CCc3ccc(C(=O)N[C@@H](CCC(=O)O)C(=O)O)cc3)c2c(=O)[nH]1 [PTX, pemetrexed]																fold changes relative to vehicle control [1]: 0.88; fold changes relative to vehicle control [2]: 0.94; fold changes relative to vehicle control [3]: 1.06; fold changes relative to vehicle control [4]: 1.04; fold changes relative to vehicle control [5]: 1.2; fold changes relative to vehicle control [6]: 0.98; fold changes relative to vehicle control [7]: 0.95; fold changes relative to vehicle control [8]: 0.94; fold changes relative to vehicle control [9]: 0.8
CCCCCCOc1ccc(Cc2cnc(N)nc2N)cc1 [compound 1]		0.76					0.98	1.14		0.89	1.07	1.32	1.3	0.94	0.87	
CCCCCCOc1cccc(Cc2cnc(N)nc2N)c1 [compound 2]		1.65					0.92	1.19		0.84	1.28	2.2	2.15	1.29	0.94	
Nc1nc2cccc(-c3ccccc3)c2n1Cc1ccc(Cl)c(Cl)c1 [compound 3]		0.81					1.33	1.08		1.02	0.98	0.83	0.87	0.94	0.92	
NCCOCCOCC(=O)Nc1nc2ncc(CNc3ccc(C(=O)NC(CCC(=O)O)C(=O)O)cc3)nc2c(=O)[nH]1 (stereo not drawn) [compound 6]	1.1	1.04	1.09	1.22	1.42	1.07	0.99	0.42	0.8							
NCCCNc1ccc(C(=O)NC(CCC(=O)O)C(=O)O)cc1 (stereo not drawn) [compound 7]	1.04	0.82	0.99	0.92	0.93	1.01	0.94	1.02	0.83							
